Usually EC50 stands for the concentration giving half of the maximal effect. The IC50 is the midpoint of a concentration-inhibition curve.

The target of one experiment is T1, LXR alpha (Homo sapiens, UniProt Q13133).
T1 construct: 5 μL of 4×LXR alpha-LBD was added to each well (final concentration 2.5 nM); purchased Thermofisher PV4655
T1 sequence (Q13133 209-447 limits assumed): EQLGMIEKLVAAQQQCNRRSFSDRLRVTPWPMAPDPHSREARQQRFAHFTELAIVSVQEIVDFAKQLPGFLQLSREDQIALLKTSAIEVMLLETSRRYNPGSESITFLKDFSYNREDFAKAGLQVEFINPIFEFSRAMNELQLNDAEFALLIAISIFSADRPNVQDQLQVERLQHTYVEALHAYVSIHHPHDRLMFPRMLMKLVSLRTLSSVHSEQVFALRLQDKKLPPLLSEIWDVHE
The experiment can be described thus: LXR alpha agonist assay (Lanthascreen TR-FRET). Format: biochemical. The following applies: LXR alpha-LBD 2.5 nM, read-out: LXR-α EC50. Here is the method:
EC50 values of compounds against LXR alpha were determined at Integral BioSciences (India) using Lanthascreen TR-FRET (Thermofisher, Cat #PV4655). Assay was performed in a 20 μL final volume in a Black 384-well plate (Corning, Cat #4511). Dose response curve for the compounds were prepared in duplicates with starting concentration at 30 μM and a three-fold titration was performed. The reaction buffer consisted of TR-FRET Coregulator Buffer H. To the compound dilution, 5 μL of 4×LXR alpha-LBD was added to each well (final concentration 2.5 nM). An equal volume (5 μL) containing 4×Fl-D22/Tb-anti GST antibody (final concentration 250 nM/10 nM) was added to initiate the enzyme reaction and the reaction was incubated for 60 min at 22° C. after which the plates were read using BioTek Plate reader for TR-FRET every hour up to 4 hours.
Analysis was done using the standard curve by non-linear regression, variable slope inhibitor curve fits (Graph-Pad Prism) and EC50's of compounds were determined wherever possible.
In general terms: TR-FRET usually uses a lanthanide donor and a delayed reading to cut background.

The target of a further experiment is T2, LXR beta (Homo sapiens, UniProt P55055).
T2 construct: 5 μL of 4×LXR beta-LBD was added to each well (final concentration 5 nM); purchased Thermofisher PV4658
T2 sequence (P55055 222-460 limits assumed): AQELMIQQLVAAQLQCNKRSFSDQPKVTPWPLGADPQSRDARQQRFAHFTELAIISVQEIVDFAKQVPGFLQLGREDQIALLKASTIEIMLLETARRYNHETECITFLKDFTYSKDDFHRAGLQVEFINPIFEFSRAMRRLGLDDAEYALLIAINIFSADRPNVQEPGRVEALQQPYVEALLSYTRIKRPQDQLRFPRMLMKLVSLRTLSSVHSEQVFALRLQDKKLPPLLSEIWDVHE
The experiment can be described thus: LXR beta agonist assay (Lanthascreen TR-FRET). The experiment is classed as biochemical. Particulars: LXR beta-LBD 5 nM, read-out: LXR-β EC50. The method, boiled down:
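TR-FRET coactivator recruitment: 5 nM LXR beta-LBD with 100 nM Fl-D22 peptide and 10 nM Tb-anti-GST antibody (final) in Coregulator Buffer G, 60 min at 22° C, read hourly up to 4 hours. Duplicate three-fold titrations from 30 μM; EC50 by variable-slope nonlinear regression.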

Another experiment relates to A549. As to the kind of experiment: Cell viability assay (resazurin) in A549. The following applies: Homo sapiens, 96 hr exposure. The experiment is classed as cell-based. Here is the method:
(§1) HepG2 (ATCC® HB-8065™), hepatocellular carcinoma, A549 (ATCC® CCL-185™), lung epithelial carcinoma, MCF7 (ATCC® HTB-22™), mammary gland epithelial carcinoma, MDA-MB-231 (ATCC® HTB-26™), TNBC, MiaPaCa-2 (ATCC® CRL-1420™) & Panc-1 (ATCC® CRL-1469™), pancreatic epithelial carcinoma, HCT116 (ATCC® CCL-247™), colon epithelial carcinoma and U87MG (ATCC® HTB-14™), brain epithelial carcinoma cell lines respectively were seeded in the respective medium (DMEM, Cat #10569044 with 10% FBS, Cat #16000044; Gibco for HepG2, A549, MCF7, MDA-MB-231, MiaPaCa-2, Panc-1, HCT116 and MEM, Cat #11095080 with 10% FBS for U87MG). Cells were allowed to grow at 37° C. for 24 hr in 5% CO2 (culture conditions) in a Nuaire incubator (humidified). Serially diluted compounds (100 μl) were added to the culture plate 24 hr later and the cultures were further incubated in culture conditions for 96 hr. Experiment was terminated at the completion of 96 hr exposure to the drug by replacing the medium with 100 μl of 1 mM of resazurin (R7017; Sigma) prepared in culture medium and the plates were further incubated in culture conditions for 4 hr. Fluorescence was then measured using a multimodal plate reader (Biotek Synergy Neo) at an excitation wavelength of 535 nm and emission wavelength of 590 nm to obtain relative fluorescence units. Data analysis was done by subtracting the background fluorescence (only medium blank) value from each reading and then normalizing with the vehicle control (DMSO treated cells) to obtain percent survival/proliferation. Percent survival at different doses was used to calculate IC50 by fitting the curve to the “four-parameter variable slope logistic model” using Prism Graph Pad.
A general note: Resazurin is reduced to fluorescent resorufin, in cell work by metabolically active cells.

The next experiment concerns HepG2. As to the kind of experiment: Cell viability assay (resazurin) in HepG2. Format: cell-based. Particulars: Homo sapiens, 96 hr exposure. The procedure:
as §1

Another experiment relates to MDA-MB-231. As to the kind of experiment: Cell viability assay (resazurin) in MDA-MB-231. The experiment is classed as cell-based. Particulars: Homo sapiens, 96 hr exposure, read-out: MDA_MB-231 Cell IC50. Here is the method:
as §1

A further experiment has as its system HCT116. As to the kind of experiment: Cell viability assay (resazurin) in HCT116. Particulars: Homo sapiens, HCT-116; 96 hr exposure. Format: cell-based. Here is the method: as §1
A further experiment has as its system MCF7. The experiment can be described thus: Cell viability assay (resazurin) in MCF7. Format: cell-based. Particulars: Homo sapiens, 96 hr exposure. The procedure: as §1
Another experiment deals with THP1. As to the kind of experiment: Cell viability assay in THP1. The experiment is classed as cell-based. Particulars: Homo sapiens, THP-1.

On to `CN(C)C(=O)c1ccc(-c2nnc(C3=CCN(S(=O)(=O)c4ccccc4Cl)CC3)s2)cc1Cl` [Compound 1.12, 2-chloro-4-(5-(1-(2-chlorophenylsulfonyl)-1,2,3,6-tetrahydropyridin-4-yl)-1,3,4-thiadiazol-2-yl)-N,N-dimethylbenzamide], for which the EC50 worked out at 4.1 µM at LXR alpha and 211 nM on LXR beta. Besides, the IC50 in the experiment with A549 is over 30 µM; in the experiment on HepG2, 14.6 µM; with MDA-MB-231, 15.3 µM.
For the compound `O=C(N1CCC(N2CCN(c3cc(Cl)c4c(=O)[nH]ccc4c3)CC2)CC1)C1(c2ccccc2)CCC1` [Compound 1.29, 8-chloro-6-(4-(1-(1-phenylcyclobutanecarbonyl)piperidin-4-yl)piperazin-1-yl)isoquinolin-1(2H)-one], the EC50 on LXR alpha worked out at 8.63 µM; at LXR beta, 920 nM.
In the case of `CC(C)[C@](O)(C(=O)N1CCC2(CC1)CN(C1CCN(c3ccc(C(=O)N(C)C)c(Cl)c3)CC1)C2)C(F)(F)F` (single isomer, unassigned) [Compound 1.74], the figures for the EC50 at LXR alpha and at LXR beta were 1.25 µM and 750 nM, respectively. Moreover, the IC50 in the experiment on HepG2 was over 30 µM.
Take `CN(C)C(=O)c1ccc(NC2CN(C3CCN(C(=O)C4(c5c(F)cccc5Cl)CCCC4)CC3)C2)cc1Cl` [Compound 1.56, 2-chloro-4-(1-(1-(1-(2-chloro-6-fluorophenyl)cyclopentanecarbonyl)piperidin-4-yl)azetidin-3-ylamino)-N,N-dimethylbenzamide]: the IC50 is 12.4 µM in the experiment on A549; 12.4 µM in the experiment on HCT116; 12.9 µM in the experiment on HepG2; 12.8 µM in the experiment on MCF7; 13.8 µM with MDA-MB-231; 14.5 µM with THP1.
Take `CN(C)C(=O)c1ccc(N2CCN(C3CC4(C3)CN(C(=O)[C@@](O)(c3ccccc3)C(F)(F)F)C4)CC2)cc1Cl` (single isomer, unassigned) [Compound 1.18]: the figures for the EC50 at LXR alpha and on LXR beta were 5.96 µM and 1580 nM, respectively.
Taken in the same sequence, the figures for `CC1CC(N2CC(Nc3ccc(C(=O)N(C)C)c(Cl)c3)C2)CCN1S(=O)(=O)c1ccccc1Cl` (stereo not drawn) [Compound 1.84, 2-chloro-4-(1-(1-(2-chlorophenylsulfonyl)-2-methylpiperidin-4-yl)azetidin-3-ylamino)-N,N-dimethylbenzamide] were 16.1 µM and 1140 nM.
On the same counts, the results for `CN(C)C(=O)c1ccc(N2CCN(C3CC4(C3)CN(S(=O)(=O)c3ccccc3C(F)(F)F)C4)CC2)cc1Cl` [Compound 1.5, 2-chloro-N,N-dimethyl-4-(4-(2-(2-(trifluoromethyl)phenylsulfonyl)-2-azaspiro[3.3]heptan-6-yl)piperazin-1-yl)benzamide] are over 30 µM and 1110 nM.
In the case of `CN(C)C(=O)c1ccc(N2CCN(C3CC4(C3)CN(C(=O)[C@](O)(c3ccccc3)C(F)(F)F)C4)CC2)cc1Cl` (single isomer, unassigned) [Compound 1.17], the results for the EC50 at LXR alpha and at LXR beta were 10.6 µM and 156 nM, respectively. For the same compound, the results for the IC50 with A549, in the experiment with HepG2 and with MDA-MB-231 were over 30 µM, 22.6 µM and over 30 µM, respectively.
As to `CN(C)C(=O)c1ccc(OC2CN(C3CCN(C(=O)[C@](O)(c4ccccc4)C(F)(F)F)CC3)C2)cc1Cl` [Compound 1.77, (R)-2-chloro-N,N-dimethyl-4-(1-(1-(3,3,3-trifluoro-2-hydroxy-2-phenylpropanoyl)piperidin-4-yl)azetidin-3-yloxy)benzamide], the EC50 on LXR alpha is 19.5 µM; on LXR beta it was 1530 nM. In the experiment on HepG2, the IC50 is over 30 µM.
With `CC(C)C(O)(C(=O)N1CCC(N2CC(Nc3ccc(C(=O)N(C)C)c(Cl)c3)C2)CC1)C(F)(F)F` (stereo not drawn) [Compound 1.43, 2-chloro-4-(1-(1-(2-hydroxy-3-methyl-2-(trifluoromethyl)butanoyl)piperidin-4-yl)azetidin-3-ylamino)-N,N-dimethylbenzamide], the EC50 at LXR beta came to 4680 nM. Besides, the IC50 with A549, in the experiment with HCT116, with MDA-MB-231 and with THP1 was over 30 µM in each case.
As for `O=C(N1CCC(C2CCN(c3cc(Cl)c4c(=O)[nH]ccc4c3)CC2)CC1)[C@](O)(c1ccccc1)C(F)(F)F` [Compound 1.19, (R)-8-chloro-6-(1′-(3,3,3-trifluoro-2-hydroxy-2-phenylpropanoyl)-4,4′-bipiperidin-1-yl)isoquinolin-1(2H)-one], the values for the EC50 at LXR alpha and at LXR beta were 0.41 µM and 451 nM, respectively. Further, the figures for the IC50 with A549, in the experiment with HepG2 and in the experiment with MDA-MB-231 were 6.9 µM, 3.7 µM and 7.2 µM, respectively.
As to `CN(C)C(=O)c1ccc(N[C@H]2CCN(C3CCN(C(=O)[C@](O)(c4ccccc4)C(F)(F)F)CC3)C2)cc1Cl` [Compound 1.46, 2-chloro-N,N-dimethyl-4-((S)-1-(1-((R)-3,3,3-trifluoro-2-hydroxy-2-phenylpropanoyl)piperidin-4-yl)pyrrolidin-3-ylamino)benzamide], the EC50 at LXR beta is over 30000 nM. The IC50 with A549, in the experiment on HCT116, with MDA-MB-231 and in the experiment on THP1 was over 30 µM each time.
With `CN(C)C(=O)c1ccc(NC2CN(C3CCN(C(=O)C4(c5cccc(F)c5)CCC4)CC3)C2)cc1Cl` [Compound 1.42, 2-chloro-4-(1-(1-(1-(3-fluorophenyl)cyclobutanecarbonyl)piperidin-4-yl)azetidin-3-ylamino)-N,N-dimethylbenzamide], the EC50 on LXR beta was 3090 nM. For the same compound, the IC50 with A549 was over 30 µM; in the experiment with HCT116, 15.1 µM; in the experiment with MDA-MB-231, 16.1 µM; with THP1, over 30 µM.
`CN(C)C(=O)c1ccc(NC2CN(C3CCN(C(=O)C4(c5ccc(F)cc5)CCC4)CC3)C2)cc1Cl` [Compound 1.49, 2-chloro-4-(1-(1-(1-(4-fluorophenyl)cyclobutanecarbonyl)piperidin-4-yl)azetidin-3-ylamino)-N,N-dimethylbenzamide]: the EC50 on LXR beta stood at 15900 nM. In addition, the IC50 was 15.1 µM with A549, 17.8 µM with HCT116, 15 µM with MDA-MB-231 and over 30 µM with THP1.
Taken in the same sequence, the figures for `CC(C)C(O)(C(=O)N1CCC(N2CC[C@H](Nc3ccc(C(=O)N(C)C)c(Cl)c3)C2)CC1)C(F)(F)F` (stereo partly drawn) [Compound 1.40, 2-chloro-4-((3S)-1-(1-(2-hydroxy-3-methyl-2-(trifluoromethyl)butanoyl)piperidin-4-yl)pyrrolidin-3-ylamino)-N,N-dimethylbenzamide] were 23600 nM, over 30 µM, over 30 µM, over 30 µM and over 30 µM.
